Results reported in ChEMBL document CHEMBL1201862, “PubChem BioAssay data set” (2004).
Active and inactive are the calls of the source.

Key:
[1] = biological target: FAD-linked sulfhydryl oxidase ALR (Homo sapiens, UniProt P55789); test: ALR-catalysed DTT oxidation blockers – biochemical, H2O2 detection, luminescence, cherry-pick, dose response (AID 493248)
[2] = biological target: T1, Rac GTPase-activating protein 1 (Homo sapiens, UniProt Q9H0H5); test: blockers of MgcRacGAP-driven Rac1 GTP hydrolysis – biochemical, ADP Hunter fluorescence, primary and confirmatory, confirmation (AID 624330); type: functional
T1 sequence (Q9H0H5 whole entry): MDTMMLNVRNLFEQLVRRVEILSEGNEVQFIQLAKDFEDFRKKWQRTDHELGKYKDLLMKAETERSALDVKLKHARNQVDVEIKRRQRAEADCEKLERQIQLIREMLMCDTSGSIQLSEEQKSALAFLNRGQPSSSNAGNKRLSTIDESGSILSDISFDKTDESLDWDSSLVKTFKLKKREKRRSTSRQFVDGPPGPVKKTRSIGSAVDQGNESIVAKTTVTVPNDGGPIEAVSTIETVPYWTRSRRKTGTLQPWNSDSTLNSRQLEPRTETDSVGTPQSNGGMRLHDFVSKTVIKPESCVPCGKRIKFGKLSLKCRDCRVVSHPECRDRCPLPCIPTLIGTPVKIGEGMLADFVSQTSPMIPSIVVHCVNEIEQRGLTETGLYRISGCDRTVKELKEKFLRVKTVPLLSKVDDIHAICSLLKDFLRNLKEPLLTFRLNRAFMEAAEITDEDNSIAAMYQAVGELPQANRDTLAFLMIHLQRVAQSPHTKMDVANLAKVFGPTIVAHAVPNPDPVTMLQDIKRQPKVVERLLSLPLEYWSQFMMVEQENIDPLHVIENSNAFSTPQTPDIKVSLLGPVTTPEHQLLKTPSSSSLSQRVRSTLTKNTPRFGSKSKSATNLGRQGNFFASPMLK

H9c2 = test: cells; type: functional, cell-based; conditions: Rattus norvegicus, H9c2, Myocardium;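 further: confirmatory concentration-response retest of ultra-high-throughput screening hits for modulation of myocardial damage; cell death induced by hydrogen peroxide oxidative stress; compound pretreatment for 60 min then peroxide exposure for 2 h; potency is for protecting the cells against peroxide damage rather than for killing them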
[3] = biological target: T2, Histone-lysine N-methyltransferase NSD2 (Homo sapiens, UniProt O96028); type: biochemical
T2 sequence (O96028 whole entry): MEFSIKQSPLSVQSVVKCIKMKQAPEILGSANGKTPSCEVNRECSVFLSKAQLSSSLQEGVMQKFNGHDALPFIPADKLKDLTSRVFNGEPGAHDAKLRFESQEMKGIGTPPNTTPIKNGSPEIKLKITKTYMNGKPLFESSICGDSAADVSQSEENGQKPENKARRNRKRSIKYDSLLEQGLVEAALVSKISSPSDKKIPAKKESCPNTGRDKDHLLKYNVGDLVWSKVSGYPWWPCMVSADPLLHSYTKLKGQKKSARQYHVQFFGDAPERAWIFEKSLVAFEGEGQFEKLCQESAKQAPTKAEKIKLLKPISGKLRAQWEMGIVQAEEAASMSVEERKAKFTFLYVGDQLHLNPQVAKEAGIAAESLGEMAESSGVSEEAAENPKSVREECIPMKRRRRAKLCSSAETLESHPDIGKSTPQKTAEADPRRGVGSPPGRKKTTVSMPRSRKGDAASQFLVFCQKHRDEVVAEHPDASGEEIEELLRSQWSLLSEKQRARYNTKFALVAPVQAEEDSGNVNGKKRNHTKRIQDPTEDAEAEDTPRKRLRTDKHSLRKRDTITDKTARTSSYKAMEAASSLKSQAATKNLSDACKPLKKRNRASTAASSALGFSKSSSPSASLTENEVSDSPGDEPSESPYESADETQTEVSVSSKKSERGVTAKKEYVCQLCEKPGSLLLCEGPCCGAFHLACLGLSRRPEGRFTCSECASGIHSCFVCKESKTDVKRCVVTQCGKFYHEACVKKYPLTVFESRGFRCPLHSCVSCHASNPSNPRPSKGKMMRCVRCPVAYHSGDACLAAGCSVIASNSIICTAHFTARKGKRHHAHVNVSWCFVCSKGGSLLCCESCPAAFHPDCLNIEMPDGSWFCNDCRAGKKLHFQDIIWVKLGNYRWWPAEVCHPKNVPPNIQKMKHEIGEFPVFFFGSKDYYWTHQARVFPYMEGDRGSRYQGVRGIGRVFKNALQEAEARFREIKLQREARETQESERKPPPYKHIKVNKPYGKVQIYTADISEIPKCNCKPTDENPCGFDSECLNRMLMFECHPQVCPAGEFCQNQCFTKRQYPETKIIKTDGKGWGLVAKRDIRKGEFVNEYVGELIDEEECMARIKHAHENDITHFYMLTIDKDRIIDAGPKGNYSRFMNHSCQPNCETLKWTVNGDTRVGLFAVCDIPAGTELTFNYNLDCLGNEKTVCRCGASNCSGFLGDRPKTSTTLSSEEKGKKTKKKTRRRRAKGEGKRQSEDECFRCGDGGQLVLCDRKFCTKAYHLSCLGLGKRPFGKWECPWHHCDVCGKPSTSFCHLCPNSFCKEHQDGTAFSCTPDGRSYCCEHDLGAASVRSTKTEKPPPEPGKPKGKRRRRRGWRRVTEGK

[4] = THP-1 cell cytotoxicity, dose response, cytotoxicity control for non-replicating M. tuberculosis project (AID 489025); type: functional
[5] = Vero E6 cell cytotoxicity, dose response, cytotoxicity control for non-replicating M. tuberculosis project, secondary assay (AID 492998); type: functional, VeroE6; conditions: Vero C1008
cells = type: functional
[6] = luciferase reporter signal suppression in cells – H4 neuroglioma cells, luminescence, dose response (AID 1990); type: functional, cell-based
[7] = Luminescence Cell-Based Dose Response HTS to Identify Inhibitors of 5'UTR Stem-Loop Driven Prion Protein mRNA Translation in H4 Neuroglioblastoma Cells. [Related pubchem assays: 1827 (Project Summary), 1813 (Primary HTS)]; type: functional
BJ [8] = test: cells; type: functional, cell-based; conditions: Homo sapiens
BJ [9] = test: BJ-TERT-LT-ST fibroblast viability loss – cell-based, RAS-independent, luminescence, dose response (AID 1935); type: functional; conditions: Homo sapiens;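 further: BJ fibroblasts immortalized with TERT plus LT and ST oncogenes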
[10] = DRD fibroblast viability loss – cell-based, non-viral oncogenic, luminescence, dose response (AID 1934); type: functional; conditions: Homo sapiens
Vero = test: cells; type: functional; conditions: Chlorocebus sabaeus
Large T antigen = Large T antigen (Simian virus 40, UniProt P03070); type: functional, Betapolyomavirus macacae;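 further: Confirmatory-stage PubChem screen for compounds that inhibit SV40 T antigen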
Chain of Large T antigen (P03070 whole entry): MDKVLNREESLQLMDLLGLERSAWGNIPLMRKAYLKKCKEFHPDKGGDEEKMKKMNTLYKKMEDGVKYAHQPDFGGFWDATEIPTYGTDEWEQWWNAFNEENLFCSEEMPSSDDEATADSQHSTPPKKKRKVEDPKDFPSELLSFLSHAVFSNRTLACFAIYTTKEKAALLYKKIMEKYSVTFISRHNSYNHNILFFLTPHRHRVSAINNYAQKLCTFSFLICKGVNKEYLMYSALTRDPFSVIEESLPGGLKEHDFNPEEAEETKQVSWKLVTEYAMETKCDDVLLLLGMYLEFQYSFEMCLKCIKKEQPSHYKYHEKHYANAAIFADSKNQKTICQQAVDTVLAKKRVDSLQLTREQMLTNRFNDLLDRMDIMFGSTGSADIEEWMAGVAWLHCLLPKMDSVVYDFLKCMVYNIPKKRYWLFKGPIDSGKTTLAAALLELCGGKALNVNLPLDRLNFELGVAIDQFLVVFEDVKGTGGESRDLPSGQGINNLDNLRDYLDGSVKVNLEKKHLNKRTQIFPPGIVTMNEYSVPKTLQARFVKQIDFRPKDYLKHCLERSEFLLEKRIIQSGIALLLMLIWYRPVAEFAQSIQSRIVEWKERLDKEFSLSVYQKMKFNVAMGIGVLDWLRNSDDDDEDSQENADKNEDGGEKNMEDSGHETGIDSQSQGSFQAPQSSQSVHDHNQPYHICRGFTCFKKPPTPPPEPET

Cytochrome P450 2D6 = Cytochrome P450 2D6 (Homo sapiens, UniProt P10635);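 further: CYP2D6 member of a cytochrome P450 panel assay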
Chain of Cytochrome P450 2D6 (P10635 whole entry): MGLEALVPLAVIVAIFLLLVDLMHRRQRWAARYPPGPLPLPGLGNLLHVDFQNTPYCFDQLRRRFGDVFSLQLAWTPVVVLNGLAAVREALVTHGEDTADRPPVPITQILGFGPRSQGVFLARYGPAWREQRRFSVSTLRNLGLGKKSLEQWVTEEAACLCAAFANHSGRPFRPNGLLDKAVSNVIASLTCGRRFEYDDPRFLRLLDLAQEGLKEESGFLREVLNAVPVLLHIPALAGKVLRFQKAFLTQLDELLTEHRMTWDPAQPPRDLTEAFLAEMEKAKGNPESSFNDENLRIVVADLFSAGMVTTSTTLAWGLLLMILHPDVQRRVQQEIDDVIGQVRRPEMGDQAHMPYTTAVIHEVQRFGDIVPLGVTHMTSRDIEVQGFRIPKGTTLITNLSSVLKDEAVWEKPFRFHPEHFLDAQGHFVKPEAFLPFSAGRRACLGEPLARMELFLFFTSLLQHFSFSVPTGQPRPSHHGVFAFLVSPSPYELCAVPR

Cytochrome P450 2C9 = Cytochrome P450 2C9 (Homo sapiens, UniProt P11712)
Chain of Cytochrome P450 2C9 (P11712 whole entry): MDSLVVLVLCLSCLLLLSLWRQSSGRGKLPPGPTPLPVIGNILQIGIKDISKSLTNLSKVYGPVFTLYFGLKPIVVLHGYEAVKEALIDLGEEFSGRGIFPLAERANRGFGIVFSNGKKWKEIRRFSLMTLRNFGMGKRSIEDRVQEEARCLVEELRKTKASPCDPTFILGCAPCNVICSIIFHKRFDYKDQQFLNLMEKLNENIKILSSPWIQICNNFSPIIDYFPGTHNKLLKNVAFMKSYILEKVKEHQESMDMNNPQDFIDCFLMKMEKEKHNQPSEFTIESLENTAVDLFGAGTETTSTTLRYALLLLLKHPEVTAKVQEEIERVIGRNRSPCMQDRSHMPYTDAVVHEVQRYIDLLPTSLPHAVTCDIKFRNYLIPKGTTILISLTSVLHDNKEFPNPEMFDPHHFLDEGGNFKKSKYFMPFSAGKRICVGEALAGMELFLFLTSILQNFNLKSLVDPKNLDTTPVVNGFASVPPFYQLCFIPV

[11] = Trypanosoma cruzi growth suppression in host cells – NIH3T3 host cells, beta-gal luminescence, confirmation (AID 2044); type: functional, cell-based;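 further: intracellular parasites grown in NIH/3T3 mouse fibroblasts as host cells; luminescent beta-galactosidase reporter signal from transgenic T. cruzi replicating inside host cells; inhibitors lower the luminescence signal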
[12] = NIH3T3 cell viability loss – ATP luminescence, mouse fibroblasts, counter-screen, dose response (AID 2010); type: functional, cell-based;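 further: cells exposed to compound for about 90 hours before reading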

Chain of FAD-linked sulfhydryl oxidase ALR (P55789 whole entry): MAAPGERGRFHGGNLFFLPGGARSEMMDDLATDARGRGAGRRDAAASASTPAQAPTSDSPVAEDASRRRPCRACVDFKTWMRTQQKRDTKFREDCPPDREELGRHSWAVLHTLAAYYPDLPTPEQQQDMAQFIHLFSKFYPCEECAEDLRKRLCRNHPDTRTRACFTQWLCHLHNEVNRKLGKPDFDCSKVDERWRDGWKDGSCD

Cc1ccn2c(NC3CCCC3)c(-c3ccncc3)nc2c1
AC50 [1]: 1.45 µM (active) | IC50 [2]: 55.3 µM (active)

Cc1ccc(OCCOC(=O)CCc2nc(O)c3ccccc3n2)cc1
IC50 (H9c2): 10.6 µM (active)

CN(C)c1ccc(C2N(c3ccc(F)cc3)C(=O)C3CCCN32)cc1 (stereo not given)
AC50 [1]: 49.4 µM (active)

Oc1nc(N2CCN(c3ccccc3)CC2)nc2c1CCCC2
IC50 (H9c2): > 79 µM (inactive)

Cc1ccc2c(c1)CCCN2CC(=O)N(C)c1c(N)n(Cc2ccccc2)c(=O)[nH]c1=O
AC50 [1]: 20 µM (active)

O=C(CC(C(=O)c1ccccc1)c1ccccc1)c1ccccc1 (stereo not given)
IC50 (H9c2): > 79 µM (inactive)

CCNCCNc1ccc(Cl)cc1[N+](=O)[O-]
AC50 [3]: > 20 µM (inactive)

C/C(=N\NC(=O)CCCNc1ccc(C)cc1)c1ccccn1
CC50 [4]: 13.1 µM (active) | CC50 [5]: 14.3 µM (active) | IC50 (cells): 18.4 µM (active) | IC50 (H9c2): 13.6 µM (active)

Cc1nc(-[n+]2nc(-c3ccncc3)nn2-c2ccccc2)sc1C
AC50 [3]: > 20 µM (inactive)

O=C(N/N=C/c1ccc(Cl)cc1)c1[nH]nc2c1CCCC2
EC50 [6]: 8.55 µM (inconclusive) | EC50 [7]: > 120 µM (not active) | EC50 (BJ [8]): 39.2 µM (active) | EC50 (BJ [9]): 0.669 µM (active) | EC50 [10]: 0.657 µM (active) | CC50 (Vero): 2.59 µM (active)

C/C(=N\Nc1nc2ccccc2nc1C)c1ccccc1O
CC50 [4]: > 40 µM (active) | CC50 [5]: > 20 µM (active) | IC50 (cells): 2.54 µM (active)

COc1cc(/C=N/Nc2nc3ccccc3o2)cc(OC)c1O
IC50 (Large T antigen): 8.87 µM (active) | AC50 [1]: 0.025 µM (active)

O=[N+]([O-])c1ccc(Cl)c(/C=N/N2CCN(Cc3ccccc3)CC2)c1
AC50 (Cytochrome P450 2D6): 11.2 µM (inconclusive) | AC50 (Cytochrome P450 2C9): inconclusive

C/C(=N\Nc1cccc(Cl)c1)c1ccncc1
EC50 [11]: 1.42 µM (active) | EC50 [12]: > 60 µM (not active) | AC50 [1]: 0.536 µM (active)

CNc1nc(N)c(C(=O)C(C)(C)C)s1
AC50 [1]: 4.57 µM (active)
